Laboratory results from patent US20260138988A1, “Spiropyrrolidine Derived Antiviral Agents” (Enanta Pharmaceuticals, Inc., priority 2021, published 2026).

These compounds were tested against SARS-CoV-2 3CL-protease (Severe acute respiratory syndrome coronavirus 2, UniProt P0DTD1) (assay: SARS-CoV-2 3C-Like (3CL) Protease Fluorescence Assay (FRET)). Settings: SARS-CoV-2 3CL-protease 10 nM, test compounds 0-10 μM, duplicate, read-out: IC50.
Format: biochemical

Compared with `CC(C)N1[C@H](C(F)(F)F)CC[C@H]1C(=O)N(C)[C@@H](CC(C)(C)C)C(=O)N1C[C@]2(C[C@H]1C#N)C(=O)Nc1ccccc12` [Example 236], `C[C@@H]1CC[C@@H](C(=O)N(C)[C@@H](CC(C)(C)C)C(=O)N2C[C@]3(C[C@H]2C#N)C(=O)Nc2ccccc23)N1C` [Example 239] is lower in IC50: 100 to 1000 nM for the first, < 100 nM for the second. The second is the more potent here.

`CC(C)C[C@@H](C(=O)N1C[C@]2(C[C@H]1C#N)C(=O)Nc1ccccc12)N(C)C(=O)[C@H]1CC[C@H](c2ccc(F)cc2)N1C(C)C` [Example 237] and `CC(C)C[C@@H](C(=O)N1C[C@]2(C[C@H]1C#N)C(=O)Nc1ccccc12)N(C)C(=O)[C@@H]1CC[C@@H](c2ccc(F)cc2)N1C(C)C` [Example 238] cannot be ordered by IC50: < 100 nM for the first, < 100 nM for the second.

`CCN1[C@H](C(=O)N(C)[C@@H](CC(C)C)C(=O)N2C[C@]3(C[C@H]2C#N)C(=O)Nc2ccccc23)CCC1(C)C` [Example 240] and `CCN1[C@@H]2C[C@@H]2C[C@H]1C(=O)N(C)[C@@H](CC(C)C)C(=O)N1C[C@]2(C[C@H]1C#N)C(=O)Nc1ccccc12` [Example 261] cannot be ordered by IC50: < 100 nM for the first, < 100 nM for the second.

`CC(C)C[C@@H](C(=O)N1C[C@]2(C[C@H]1C#N)C(=O)Nc1ccccc12)N(C)C(=O)[C@@H]1CC2(CC2)CN1C(C)C` [Example 241] and `CC(C)C[C@@H](C(=O)N1C[C@]2(C[C@H]1C#N)C(=O)Nc1ccccc12)N(C)C(=O)[C@@H]1CC2(CCCC2)CN1C(C)C` [Example 255] cannot be ordered by IC50: < 100 nM for the first, < 100 nM for the second.

`C[C@H](NC(=O)/C=C/c1ccc(F)cc1)C(=O)N(C)[C@@H](CC(C)(C)C)C(=O)N1C[C@]2(C[C@H]1C#N)C(=O)Nc1ccccc12` [Example 242] and `C[C@H](NC(=O)C(F)(F)Cc1ccc(F)cc1)C(=O)N(C)[C@@H](CC(C)(C)C)C(=O)N1C[C@]2(C[C@H]1C#N)C(=O)Nc1ccccc12` [Example 243] cannot be ordered by IC50: < 100 nM for the first, < 100 nM for the second.

`C[C@H](NC(=O)C(F)(F)CCc1ccccc1)C(=O)N(C)[C@@H](CC(C)(C)C)C(=O)N1C[C@]2(C[C@H]1C#N)C(=O)Nc1ccccc12` [Example 244] and `C[C@H](NC(=O)C(C)(F)F)C(=O)N(C)[C@@H](Cc1ccccc1)C(=O)N1C[C@]2(C[C@H]1C#N)C(=O)Nc1ccccc12` [Example 269] cannot be ordered by IC50: < 100 nM for the first, < 100 nM for the second.

`CC(C)(C)C[C@H](NC(=O)[C@@H](NC(=O)C(F)(F)F)c1ccccc1)C(=O)N1C[C@]2(C[C@H]1C#N)C(=O)Nc1ccccc12` [Example 245] and `CC(C)(C)C[C@H](NC(=O)[C@@H](NC(=O)C(F)(F)c1ccccc1)c1ccccc1)C(=O)N1C[C@]2(C[C@H]1C#N)C(=O)Nc1ccccc12` [Example 249] cannot be ordered by IC50: < 100 nM for the first, < 100 nM for the second.

`CC(C)(C)C[C@H](NC(=O)[C@@H](NC(=O)C1CCC1)c1ccccc1)C(=O)N1C[C@]2(C[C@H]1C#N)C(=O)Nc1ccccc12` [Example 246] and `CC(C)(C)C[C@H](NC(=O)[C@@H](NC(=O)c1ccc(F)cc1)c1ccccc1)C(=O)N1C[C@]2(C[C@H]1C#N)C(=O)Nc1ccccc12` [Example 247] cannot be ordered by IC50: < 100 nM for the first, < 100 nM for the second.

`CC(C)(C)C[C@H](NC(=O)[C@@H](NC(=O)C1(c2ccccc2)CC1)c1ccccc1)C(=O)N1C[C@]2(C[C@H]1C#N)C(=O)Nc1ccccc12` [Example 248] and `C[C@H](NC(=O)c1ccccc1-c1ccccc1)C(=O)N(C)[C@@H](CC(C)(C)C)C(=O)N1C[C@]2(C[C@H]1C#N)C(=O)Nc1ccccc12` [Example 282] cannot be ordered by IC50: < 100 nM for the first, < 100 nM for the second.

`CC(C)C[C@H](NC(=O)OC1CCC1)C(=O)N[C@@H](CC(C)(C)C)C(=O)N1C[C@]2(C[C@H]1C#N)C(=O)Nc1ccccc12` [Example 250] and `CC(C)C[C@@H](C(=O)N1C[C@]2(C[C@H]1C#N)C(=O)Nc1ccccc12)N(C)C(=O)[C@H](C)NC(=O)C(F)(F)C1CC1` [Example 285] cannot be ordered by IC50: < 100 nM for the first, < 100 nM for the second.

`CC(C)C[C@@H](C(=O)N1C[C@]2(C[C@H]1C#N)C(=O)Nc1ccccc12)N(C)C(=O)[C@@H]1[C@@H]2C[C@@H]2CN1C(C)C` [Example 251] and `CC(C)C[C@@H](C(=O)N1C[C@]2(C[C@H]1C#N)C(=O)Nc1ccccc12)N(C)C(=O)[C@@H]1[C@@H]2C[C@@H]2CN1C` [Example 253] fall in the same range of IC50: 100 to 1000 nM for the first, 100 to 1000 nM for the second.

`CC(C)C[C@@H](C(=O)N1C[C@]2(C[C@H]1C#N)C(=O)Nc1ccccc12)N(C)C(=O)[C@@H]1[C@@H]2C[C@@H]2CN1C1CC1` [Example 252] and `CCN1C[C@H]2C[C@H]2[C@H]1C(=O)N(C)[C@@H](CC(C)C)C(=O)N1C[C@]2(C[C@H]1C#N)C(=O)Nc1ccccc12` [Example 254] fall in the same range of IC50: 100 to 1000 nM for the first, 100 to 1000 nM for the second.

`CC(C)C[C@@H](C(=O)N1C[C@]2(C[C@H]1C#N)C(=O)Nc1ccccc12)N(C)C(=O)[C@@H]1CC2(CCCC2)CN1C1CC1` [Example 256] and `CCN1CC2(CCCC2)C[C@H]1C(=O)N(C)[C@@H](CC(C)C)C(=O)N1C[C@]2(C[C@H]1C#N)C(=O)Nc1ccccc12` [Example 257] cannot be ordered by IC50: < 100 nM for the first, < 100 nM for the second.

`CC(C)C[C@@H](C(=O)N1C[C@]2(C[C@H]1C#N)C(=O)Nc1ccccc12)N(C)C(=O)[C@@H]1C[C@H]2C[C@H]2N1C1CC1` [Example 258] and `CC(C)C[C@@H](C(=O)N1C[C@]2(C[C@H]1C#N)C(=O)Nc1ccccc12)N(C)C(=O)[C@@H]1C[C@H]2C[C@H]2N1C` [Example 260] cannot be ordered by IC50: < 100 nM for the first, < 100 nM for the second.

`COCCC(=O)N[C@@H](C)C(=O)N(C)[C@@H](CC(C)(C)C)C(=O)N1C[C@]2(C[C@H]1C#N)C(=O)Nc1ccccc12` [Example 262] and `COCCOCCC(=O)N[C@@H](C)C(=O)N(C)[C@@H](CC(C)(C)C)C(=O)N1C[C@]2(C[C@H]1C#N)C(=O)Nc1ccccc12` [Example 263] cannot be ordered by IC50: < 100 nM for the first, < 100 nM for the second.

`C[C@H](NC(=O)CCCC(F)(F)F)C(=O)N(C)[C@@H](CC(C)(C)C)C(=O)N1C[C@]2(C[C@H]1C#N)C(=O)Nc1ccccc12` [Example 264] and `C[C@H](NC(=O)C(C)(F)F)C(=O)N(C)[C@@H](CC(C)(C)C)C(=O)N1C[C@]2(C[C@H]1C#N)C(=O)Nc1ccccc12` [Example 288] cannot be ordered by IC50: < 100 nM for the first, < 100 nM for the second.

`CC(C)C[C@@H](C(=O)N1C[C@]2(C[C@H]1C#N)C(=O)Nc1ccccc12)N(C)C(=O)[C@H](C)NC(=O)C1CC1(C)C` (stereo partly shown) [Example 265] and `CC(C)C[C@@H](C(=O)N1C[C@]2(C[C@H]1C#N)C(=O)Nc1ccccc12)N(C)C(=O)[C@H](C)NC(=O)C(C)(F)F` [Example 273] cannot be ordered by IC50: < 100 nM for the first, < 100 nM for the second.

`CC(C)C[C@@H](C(=O)N1C[C@]2(C[C@H]1C#N)C(=O)Nc1ccccc12)N(C)C(=O)[C@H](C)NC(=O)CC(F)(F)F` [Example 266] and `CCC(F)(F)C(=O)N[C@@H](C)C(=O)N(C)[C@@H](CC(C)C)C(=O)N1C[C@]2(C[C@H]1C#N)C(=O)Nc1ccccc12` [Example 271] cannot be ordered by IC50: < 100 nM for the first, < 100 nM for the second.

`C[C@H](NC(=O)C(F)(F)F)C(=O)N(C)[C@@H](Cc1ccccc1)C(=O)N1C[C@]2(C[C@H]1C#N)C(=O)Nc1ccccc12` [Example 267] and `C[C@H](NC(=O)C(F)(F)C(F)(F)F)C(=O)N(C)[C@@H](Cc1ccccc1)C(=O)N1C[C@]2(C[C@H]1C#N)C(=O)Nc1ccccc12` [Example 268] cannot be ordered by IC50: < 100 nM for the first, < 100 nM for the second.

`C[C@H](NC(=O)c1ccc(F)cc1)C(=O)N(C)[C@@H](Cc1ccccc1)C(=O)N1C[C@]2(C[C@H]1C#N)C(=O)Nc1ccccc12` [Example 270] and `C[C@H](NC(=O)c1ccc(-c2ccccc2)cc1)C(=O)N(C)[C@@H](CC(C)(C)C)C(=O)N1C[C@]2(C[C@H]1C#N)C(=O)Nc1ccccc12` [Example 289] cannot be ordered by IC50: < 100 nM for the first, < 100 nM for the second.

`CC(C)C[C@@H](C(=O)N1C[C@]2(C[C@H]1C#N)C(=O)Nc1ccccc12)N(C)C(=O)[C@H](C)NC(=O)C1(F)CCC1` [Example 272] and `CC(C)C[C@@H](C(=O)N1C[C@]2(C[C@H]1C#N)C(=O)Nc1ccccc12)N(C)C(=O)[C@H](C)NC(=O)C12CC(F)(C1)C2` [Example 278] cannot be ordered by IC50: < 100 nM for the first, < 100 nM for the second.

`C[C@H](NC(=O)OCc1ccccc1)C(=O)N(C)[C@@H](Cc1ccccc1)C(=O)N1C[C@]2(C[C@H]1C#N)C(=O)Nc1ccccc12` [Example 274] and `C[C@H](NC(=O)c1cc2ccccc2n1-c1ccccc1)C(=O)N(C)[C@@H](CC(C)(C)C)C(=O)N1C[C@]2(C[C@H]1C#N)C(=O)Nc1ccccc12` [Example 281] cannot be ordered by IC50: < 100 nM for the first, < 100 nM for the second.

`CC(C)C[C@@H](C(=O)N1C[C@]2(C[C@H]1C#N)C(=O)Nc1ccccc12)N(C)C(=O)[C@H](C)NC(=O)C1(F)C(F)(F)C1(F)F` [Example 275] and `CC(C)C[C@@H](C(=O)N1C[C@]2(C[C@H]1C#N)C(=O)Nc1ccccc12)N(C)C(=O)[C@H](C)NC(=O)C12CC(C(F)(F)F)(C1)C2` [Example 279] cannot be ordered by IC50: < 100 nM for the first, < 100 nM for the second.

`CC(C)C[C@@H](C(=O)N1C[C@]2(C[C@H]1C#N)C(=O)Nc1ccccc12)N(C)C(=O)[C@H](C)NC(=O)C(F)(F)C(C)C` [Example 276] and `CC(C)C[C@@H](C(=O)N1C[C@]2(C[C@H]1C#N)C(=O)Nc1ccccc12)N(C)C(=O)[C@H](C)NC(=O)C(C)(C)C(F)(F)F` [Example 283] cannot be ordered by IC50: < 100 nM for the first, < 100 nM for the second.

`CCCC(F)(F)C(=O)N[C@@H](C)C(=O)N(C)[C@@H](CC(C)C)C(=O)N1C[C@]2(C[C@H]1C#N)C(=O)Nc1ccccc12` [Example 277] and `CC(C)C[C@@H](C(=O)N1C[C@]2(C[C@H]1C#N)C(=O)Nc1ccccc12)N(C)C(=O)[C@H](C)NC(=O)c1ccc(C(F)(F)F)cc1C(F)(F)F` [Example 291] cannot be ordered by IC50: < 100 nM for the first, < 100 nM for the second.

`C[C@H](NC(=O)c1ccc2c(c1)OC(F)(F)O2)C(=O)N(C)[C@@H](CC(C)(C)C)C(=O)N1C[C@]2(C[C@H]1C#N)C(=O)Nc1ccccc12` [Example 280] and `C[C@H](NC(=O)c1ccc(C(F)(F)F)cc1)C(=O)N(C)[C@@H](CC(C)(C)C)C(=O)N1C[C@]2(C[C@H]1C#N)C(=O)Nc1ccccc12` [Example 286] cannot be ordered by IC50: < 100 nM for the first, < 100 nM for the second.

`C[C@H](NC(=O)c1cccc2cc(Cl)ccc12)C(=O)N(C)[C@@H](CC(C)(C)C)C(=O)N1C[C@]2(C[C@H]1C#N)C(=O)Nc1ccccc12` [Example 284] and `C[C@H](NC(=O)c1cccc(-c2ccccc2)c1)C(=O)N(C)[C@@H](CC(C)(C)C)C(=O)N1C[C@]2(C[C@H]1C#N)C(=O)Nc1ccccc12` [Example 290] cannot be ordered by IC50: < 100 nM for the first, < 100 nM for the second.

`C[C@H](NC(=O)c1ccc(S(C)(=O)=O)cc1)C(=O)N(C)[C@@H](CC(C)(C)C)C(=O)N1C[C@]2(C[C@H]1C#N)C(=O)Nc1ccccc12` [Example 287] was tested, and the IC50 was < 100 nM.
